Columns and labels:
[1] = Pharmacokinetic study of lipid-nucleic acid mixture, gavage group, relative amount of PGY-sRNA-26 delivered to organs over time; assay type: in vivo, C57BL/6 male mice; conditions: sampled at 3, 6, 9, 12, 24 hrs
Description: (§1) 1 nmol of small RNA (as shown in Table 2) was dissolved in 400 μl of DEPC-treated water in a glass tube, and 10 μl of a corresponding lipid stock solution was added, to give a system containing 100 μg of lipid. The system was well mixed, heated for 15 min in a water bath at 90° C., and then naturally cooled, to obtain a lipid-nucleic acid mixture of the lipid and small RNA.
(§2) The C57BL/6 male mice used in the experiment were purchased from Beijing Vital River Laboratory Animal Technology Co., Ltd., about 6 weeks old, and weighed 20-24 g. They were kept in an SPF animal room of the Animal Center of the Institute of Basic Medical Sciences, Chinese Academy of Medical Sciences. The mice were fasted for 12 hrs before gavage.
(§3) The lipid-nucleic acid mixture was prepared following the method as described in Example 2. The prepared lipid-nucleic acid mixture was orally administered or injected via the tail vein at a dose of 100 μg lipid:1 nmol single-stranded small RNA PGY-sRNA-26 per mouse. The oral dose was half that of the tail vein injection.
(§4) 1) Blank group: Mice (n=6) were given 500 μl of normal saline by gavage, and this group served as a blank control group;
2) Gavage group: Mice (n=15) were given 200 μl of the lipid-nucleic acid mixture prepared in step 2 by gavage.
(§5) At 3 hrs, 6 hrs, 9 hrs, 12 hrs and 24 hrs after administration in the gavage group and the intravenous injection group, 3 mice were taken and the RNA was extracted from each organ according to the method in Example 3.
(§6) The RNA extracted from each organ was reverse transcribed into cDNA according to the method in Example 3.
(§7) A quantitative PCR amplification reaction was performed according to the method in Example 3.
(§8) 3.5. The Relative Expression Level was Calculated by the 2-ΔCt Method.
(§9) FIGS. 46-49 respectively show the results of delivering single-stranded small RNA PGY-sRNA-26 into different target tissues at various time points by gavage using lipids 93, 94, 96, and 100. FIGS. 50-54 respectively show the results of delivering single-stranded small RNA PGY-sRNA-26 into different target tissues at various time points by injection via the tail vein using lipids 94, 96, 98, 100, and 101.

[2] = In vivo delivery of lipid-nucleic acid mixture (PGY-sRNA-26) by gavage, relative intake in blood and tissues by RT-qPCR; set-up: species or system C57BL/6 male mice; conditions: for oral delivery of sRNA single-chain nucleic acid into the blood, and lung, kidney, spleen, heart, and intestinal tissue of mice: 100 μg lipid:1 nmol PGY-sRNA-26 per mouse, 12 hrs after gavage, vs free intake group; for number of organs into which nucleic acid is significantly delivered: among the 6 organs in the experiments
Description: The concentration of a lipid solution in chloroform was 10 mg/ml (stock solution), and grouping was performed according to the lipid compound number.
as §1, §2
The lipid-nucleic acid mixture was prepared following the method as described in Example 2. The prepared lipid-nucleic acid mixture was orally administered at a dose of 100 μg lipid:1 nmol single-stranded small RNA PGY-sRNA-26 per mouse.
1) Blank group: Mice (n=4) were given 500 μl of normal saline by gavage, and this group served as a blank control group;
2) Free intake group: Mice (n=4) were given sRNA solution (1 nmol/animal, 500 μl) by direct gavage, and this group served as a negative control group;
3) Lipid treatment group: Mice (n=4) were given 500 μl of the lipid-nucleic acid mixture prepared in step 2 by gavage.
12 hrs after gavage in each group of mice, 500 μl of blood was taken from the eyeball, and 1.5 ml of Trizol Reagent LS (purchased from Invitrogen) was added and mixed well for lysis. The tissue sample was added with 3 ml of Trizol Reagent LS. and homogenized for full lysis, wherein the tissue sample included lung/kidney/spleen/heart/gut. 1 ml of blood or tissue lysate was taken and RNA was extracted according to the following steps.
The blood or tissue lysate was centrifuged at 4° C., and 12,000 rpm for 5 min, the pellet was discarded, and Trizol was transferred to a new centrifuge tube.
Chloroform was added in an amount of 200 μL chloroform/mL Trizol, shaken fully until uniform, and allowed to stand at room temperature for 5 min.
The sample was centrifuged at 4° C., and 12,000 rpm, for 15 min.
The upper aqueous phase was pipetted to another centrifuge tube, and isopropanol was added in an amount of 0.4 mL isopropanol/mL Trizol, mixed well, and allowed to stand at a low temperature for 10-20 min.
The sample was centrifuged at 4° C., and 12,000 rpm, for 15 min, the supernatant was discarded, and the RNA pellet was at the bottom of the tube.
1 mL of 75% ethanol was added, and the centrifuge tube was shaken gently, to suspend the pellet.
The sample was centrifuged at 4° C., and 12,000 rpm, for 10 min, the supernatant was discarded, 1 mL of 75% ethanol was added, and the centrifuge tube was shaken gently, to suspend the pellet.
The sample was centrifuged at 4° C., and 12,000 rpm, for 10 min, the supernatant was discarded, and the sample was air dried at room temperature. The RNA sample was dissolved in 50-100 μL of RNase-free H2O, and the RNA concentration was quantified by determining the OD value.
The sRNA was reversely transcribed into cDNA using a reverse transcription kit (High-Capacity cDNA Reverse Transcription Kits, Applied Biosystems, cat. no. 4368813), following the stem-loop method (see, for example Real-time quantification of microRNAs by stem-loop RT-PCR, Nucleic Acids Res. 2005 Nov. 27; 33(20):e179, incorporated herein by reference). System for reverse transcription: template RNA (200 ng/μL) 10 μL, 10×RT buffer 2.0 μL, 25×dNTP Mix (100 mM) 0.8 μL, U6 RT stem-loop primer 2.0 μL, PGY-sRNA-26 RT stem-loop primer 2.0 μL, MultiScribe™ reverse transcriptase 1.0 μL, RNAase inhibitor 1.0 μL, and nuclease-free water H2O 1.2 μL. […]

[3] = Pharmacokinetic study of lipid-nucleic acid mixture, tail vein injection group, relative amount of PGY-sRNA-26 delivered to organs over time; assay type: in vivo, C57BL/6 male mice; conditions: injection via the tail vein; sampled at 3, 6, 9, 12, 24 hrs
Description: as §1, §2, §3, §4
3) Intravenous injection group: Mice (n=15) were given 100 μl of the lipid-nucleic acid mixture prepared in step 2 by injection via the tail vein.
as §5, §6, §7, §8, §9

[4] = significant difference compared to the control, 100 μg lipid:1 nmol PGY-sRNA-26, 12 hrs

Substance | time at which amount of nucleic acid delivered into the brain tissue reaches a maximum value [1] | time at which amount of nucleic acid delivered into the gastric tissue reaches a maximum value [1] | time at which amount of nucleic acid delivered into the heart tissue reaches a maximum value [1] | time at which amount of nucleic acid delivered into the intestinal tissue reaches a maximum value [1] | time at which amount of nucleic acid delivered into the kidney tissue reaches a maximum value [1] | time at which amount of nucleic acid delivered into the lung tissue reaches a maximum value [1] | time at which amount of nucleic acid delivered into the spleen tissue reaches a maximum value [1] | oral delivery of sRNA single-chain nucleic acid into the blood, and lung, kidney, spleen, heart, and intestinal tissue of mice [2] | number of organs into which nucleic acid is significantly delivered [2] | oral delivery of sRNA single-stranded nucleic acid into the kidney tissue of mice [2, 4] | oral delivery of sRNA single-stranded nucleic acid into the lung tissue of mice [2, 4] | time at which amount of nucleic acid delivered into the brain tissue reaches a maximum value [3] | time at which amount of nucleic acid delivered into the gastric tissue reaches a maximum value [3] | time at which amount of nucleic acid delivered into the intestinal tissue reaches a maximum value [3] | time at which amount of nucleic acid delivered into the kidney tissue reaches a maximum value [3] | time at which amount of nucleic acid delivered into the spleen tissue reaches a maximum value [3] | oral delivery of sRNA single-stranded nucleic acid into the spleen tissue of mice [2, 4] | time at which amount of nucleic acid delivered into the heart tissue reaches a maximum value [3] | time at which amount of nucleic acid delivered into the liver tissue reaches a maximum value [3] | time at which amount of nucleic acid delivered into the lung tissue reaches a maximum value [3]
1-O-octadecyl-2-hydroxy-sn-glycero-3-phosphocholine [Lipid 94] | 3 h | 3 h | 3 h | 3 h | 9 h | 9 h | 3 h | can effectively orally deliver | two organs | can significantly efficiently orally deliver | can significantly efficiently orally deliver | 6 h | 3 h | 6 h | 9 h | 6 h | – | – | – | –
1-palmitoyl-2-hydroxy-sn-glycero-3-phosphate (sodium salt) [Lipid 96] | – | – | – | 3 h | 3 h | – | – | can effectively orally deliver | two organs | can significantly efficiently orally deliver | – | 6 h | – | 6 h | 3 h | – | can significantly efficiently orally deliver | 9 h | 3 h | 6 h
